Data set [1] can be described thus: Partition coefficient, Hansch method (n-octanol/buffer). It is filed as physicochemical. As for the experimental part:
The Hansch method was used to determine the partition coefficient between the n-octanol and phosphate buffer (both 10 mL) system. Different pH systems of 1.2, 4.0, 6.8, and 7.4, and n-octanol and double distilled water (both 10 mL, pH 5.8) were prepared. The buffers, n-octanol, and double distilled water were added to a separating funnel. The phases were shaken for 60 minutes. to attain saturation. Ten milligrams of Bu and BuP were added to respective separators and were given 30 minutes of shaking for the drug to achieve sufficient distribution in both the phases. The separators were kept still for 5 minutes, and then the phases were separated. The phases were suitably diluted and analyzed (n=6) using the fiber optics with the UV detector set at 232 nm and 340 nm for Bu and BuP, respectively.

A short description of data set [2]: Solubility studies of Bu and BuP in buffer media. It is filed as physicochemical. Particulars: thermodynamic from solid. Here is the method: Solubility studies of the pure Bu and prepared BuP were determined (n=6) by making saturated solutions of HCl buffer, phthalate buffer, phosphate buffer of pH 1.2, 4.0, 6.8 (with and without 10% w/v rat fecal content), and 7.4 respectively. The solutions, kept separately in a conical flask, were subjected to ultrasonic waves in an ultrasonic bath (Sonorex, Bandelin Electronic, Germany) for 30 minutes. Fiber optic probes were inserted at 0 and 30 minutes, and readings taken at 232 nm for Bu and 340 nm for BuP using the fiber optics system

Another data set relates to colitis in rats. Particulars: literature; cited from earlier work.

Converted amounts (≈) assume the structure as drawn.

The term logP denotes the decadic logarithm of the partition coefficient of the neutral form, usually between octanol and water. Low values mean a more hydrophilic compound, high ones a more lipophilic compound. Broadly, the solubility is the concentration that dissolves in the medium under given conditions. On to `CCCC1O[C@@H]2C[C@H]3[C@@H]4CCC5=CC(=O)C=C[C@]5(C)[C@H]4[C@@H](O)C[C@]3(C)[C@]2(C(=O)CO)O1` (stereo partly drawn) [Bu, budesonide], for which the lipophilicity (logP) in data set [1] (n-octanol / HCl buffer, pH 1.2) turned out to be 3.12 ± 0.12; in data set [1] (n-octanol / double distilled water, pH 5.8) it was 2.87 ± 1.05; in data set [1] (n-octanol / phosphate buffer, pH 6.8) it was 2.51 ± 0.36; in data set [1] (n-octanol / phosphate buffer, pH 7.4) it was 2.13 ± 1.09; in data set [1] (n-octanol / phthalate buffer, pH 4.0), 3.01 ± 0.54. The solubility at 0 min in data set [2] (aqueous buffer, Phosphate buffer, pH 6.8) is 187 ± 1.98 µg/mL (≈ 435 µM); in data set [2] (aqueous buffer, Phosphate buffer, pH 7.4), 231 ± 2.12 µg/mL (≈ 537 µM); in data set [2] (aqueous buffer, Phthalate buffer, pH 4.0), 68.2 ± 0.98 µg/mL (≈ 158 µM); in data set [2] (phosphate buffer with 10% w/v rat fecal content, plasma or biological fluid, Phosphate buffer, pH 6.8 + rat fecal content), 187.1 ± 0.89 µg/mL; in data set [2] (simulated gastric fluid, HCl buffer, pH 1.2) it was 25.1 ± 1.43 µg/mL (≈ 58.3 µM); in data set [2] (Double distilled water, pH 5.8), 121 ± 1.26 µg/mL (≈ 281 µM). Also, the solubility at 30 min in data set [2] (aqueous buffer, Phosphate buffer, pH 6.8, 30 min) was 356.9 ± 0.99 µg/mL (≈ 829 µM); in data set [2] (aqueous buffer, Phosphate buffer, pH 7.4, 30 min), 476.1 ± 1.99 µg/mL (≈ 1110 µM); in data set [2] (aqueous buffer, Phthalate buffer, pH 4.0, 30 min), 148 ± 1.32 µg/mL (≈ 344 µM); in data set [2] (phosphate buffer with 10% w/v rat fecal content, plasma or biological fluid, Phosphate buffer, pH 6.8 + rat fecal content, 30 min), 356.9 ± 1.76 µg/mL; in data set [2] (simulated gastric fluid, HCl buffer, pH 1.2, 30 min ultrasonic bath), 88.12 ± 0.67 µg/mL (≈ 205 µM); in data set [2] (Double distilled water, pH 5.8, 30 min) it was 209 ± 2.13 µg/mL (≈ 486 µM).
For `CCCC1OC2CC3C4CCC5=CC(=O)C=CC5(C)C4C(O)CC3(C)C2(C(=O)COC2OC(C(=O)O)C(O)C(O)C2O)O1` [budesonide-beta-D-glucuronide], in the data set on colitis in rats, the “effect on colitis in rats” value is reported as “accelerate the treatment of colitis in rats”.

The values are drawn from US11013748B2, “Budesonide prodrug” (University of Nizwa, priority 2019, dated 2021).
